Experimental data as given in patent US20210009624A1, “[18F] FMAU LABELING FOR PET IMAGING OF CANCER PATIENTS” (University of Southern California, priority 2018, published 2021).

What was measured:
[1] = system: primary breast tumor as well as metastatic disease; test: PET imaging of [18F]FMAU in breast cancer patients (Phase I); type: in vivo, human; conditions: FIG. 3
From the text: (§1) In addition to animal models, we also studied the [^18F]FMAU obtained through our synthesis method using the labeling kit in patients (Phase I) with known breast and prostate cancer. […] In view of the promising clinical Phase I data of [^18F]FMAU, it is clear that FMAU is a promising candidate for PET imaging of tumor cell proliferation, and may ultimately complement the role of FLT or other cell proliferation markers currently under development.

[2] = Adverse reactions in Phase I patients with breast and prostate cancer; type: in vivo, human; conditions: all studied patients (Phase I, known breast and prostate cancer)
From the text: as §1

[3] = Circulating metabolites in human blood after injection of [18F]FMAU; type: in vivo; conditions: human blood at 1 hour post-injection
From the text: as §1

## Cc1cn([C@@H]2O[C@H](CO)C(O)C2[18F])c(=O)[nH]c1=O (stereo partly drawn) [[^18F]FMAU, 2′-deoxy-2′-[^18F]fluoro-5-methyl-1-beta-D-arabinofuranosyl-uracil]
[1]
  primary breast tumor as well as metastatic disease uptake of [18F]FMAU (PET imaging): excellent
[2]
  adverse reactions: No adverse reactions were observed
[3]
  circulating metabolites in human blood: No major circulating metabolites were identified
